According to patent US4962109A, “Insecticidally and acaricidally active pyrimidine esters and intermediates therefor” (Imperial Chemical Industries PLC, priority 1985, dated 1990):

Legend:
Type in all cases: in vivo
[1] = tested on: Nephotettix cincticeps (green leaf hopper - nymphs); assay: Contact test on green leaf hopper nymphs (NC), Rice plant, mortality; conditions: 48 h, 500 ppm, contact, 2 days, read-out: NC grading of mortality
Procedure, shortened: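 Product dissolved in acetone, diluted in water with 0.01% wetting agent to 500, 250 or 100 ppm; nymphs and/or host rice plants treated. Mortality or knockdown assessed 1–3 days later, graded A (80-100%), B (50-79%), C (<50%).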

[2] = tested on: Blattella germanica (cockroach nymphs); assay: Contact test on cockroach nymphs (BG/C), Plastic pot, mortality; conditions: 48 h, 500 ppm, contact, 2 days, read-out: BG/C grading of mortality
Procedure, shortened: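 Cockroach nymphs and/or their medium were treated with aqueous preparations at 500, 250 or 100 ppm (acetone solution diluted in water with 0.01% Lissapol NX wetting agent). Mortality or knockdown was assessed typically 1–3 days later and graded A (80–100%), B (50–79%) or C (<50%).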

[3] = tested on: Heliothis virescens (tobacco budworm - larvae); assay: Residual test on tobacco budworm larvae (HV), Cotton leaf, mortality; conditions: 48 h, read-out: HV grading of mortality
Procedure, shortened: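 Product in acetone diluted with water containing 0.01% Lissapol NX, at 500, 250 or 100 ppm; pests and/or host medium (here cotton leaf) treated. Mortality scored one to three days later, graded A (80-100%), B (50-79%), C (<50%).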

[4] = tested on: Musca domestica (houseflies - adults); assay: Knockdown test on houseflies - adults (MD/KD), Cotton wool/sugar; conditions: 500 ppm, 4 hours, read-out: MD/KD grading of knockdown
Procedure, shortened: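 Adult houseflies exposed to the compound at 500, 250 or 100 ppm in acetone/water with 0.01% wetting agent, on a cotton wool/sugar medium. Knockdown and mortality assessed, graded A (80-100%), B (50-79%) or C (<50%).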

[5] = tested on: Tetranychus urticae (spider mites - ova); assay: Contact test on spider mites - ova (TUe), French bean leaf, mortality; conditions: 144 h, 500 ppm, contact, 6 days, read-out: TUe grading of mortality
Procedure, shortened: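 Graded read-out: A 80-100%, B 50-79%, C below 50% mortality or knockdown, assessed usually 1-3 days post-treatment. Liquid preparations at 500, 250 or 100 ppm by weight, from acetone solution diluted in water with 0.01% wetting agent, applied to pests and/or their host plant or food medium.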

Myzus persicae (aphids) = assay: Contact test on aphids (MP), Chinese Cabbage leaf, mortality; conditions: 72 h, 500 ppm, contact, 3 days, read-out: MP grading of mortality
Procedure, shortened: (§1)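 Compound dissolved in acetone, diluted with water containing 0.01% by weight wetting agent to 500, 250 or 100 ppm. Pests held on host plant or foodstuff; pests and/or medium treated. Mortality scored one to three days later as grade A (80-100%), B (50-79%) or C (<50%) mortality or knockdown.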

[6] = tested on: Spodoptera exigua (lesser army worm - larvae); assay: Residual test on lesser army worm larvae (SP), Cotton leaf, mortality; conditions: 48 h, 500 ppm, residual, 2 days, read-out: SP grading of mortality
Procedure, shortened: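 Product dissolved in acetone and diluted in water with 0.01% wetting agent to 500, 250 or 100 ppm; larvae and/or cotton leaf host treated. Mortality or knockdown scored one to three days later and graded A (80-100%), B (50-79%) or C (<50%).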

[7] = tested on: Diabrotica balteata (rootworm larvae); assay: Residual test on rootworm larvae (DB), Filter paper/maize seed, mortality; conditions: 48 h, 500 ppm, residual, 2 days, read-out: DB grading of mortality
Procedure, shortened: as §1

[8] = tested on: Tetranychus urticae (spider mites - adult); assay: Contact test on spider mites - adult (TUa), French bean leaf, mortality; conditions: 72 h, 500 ppm, contact, 3 days, read-out: TUa grading of mortality
Procedure, shortened: as §1

[9] = tested on: Musca domestica (houseflies - adults); assay: Contact test on houseflies - adults (MD), Cotton wool/sugar, mortality; conditions: 72 h, 500 ppm, contact, 3 days, read-out: MD grading of mortality
Procedure, shortened: as §1

Compound	mortality at 500 ppm [1] [%]	mortality at 500 ppm [2] [%]	mortality at 500 ppm [3] [%]	pest or weed control at 500 ppm [4] [%]	mortality at 500 ppm [5] [%]	mortality at 500 ppm (Myzus persicae (aphids)) [%]	mortality at 500 ppm [6] [%]	mortality at 500 ppm [7] [%]	mortality at 500 ppm [8] [%]	mortality at 500 ppm [9] [%]
CC1(c2ncc(C(C(=O)OCc3ccc(F)c(Oc4ccccc4)c3)C(C)(C)C)cn2)CC1 (racemic) [Compound 204, 4-fluoro-3-phenoxybenzyl (RS)-2-[2-(1-methylcyclopropyl)pyrimidin-5-yl]-3,3-dimethylbutanoate]	80 to 100	50 to 79	80 to 100	80 to 100	< 50	80 to 100	80 to 100	< 50	80 to 100	80 to 100
COc1c(F)c(COC(C)C)c(F)c(F)c1COC(=O)C(c1cnc(C(C)(C)C)nc1)C(C)(C)C (racemic) [Compound 190, 2,3,5-trifluoro-6-methoxy-4-[(1-methyl)ethoxy]methylbenzyl (RS)-2-[2-(1,1-dimethylethyl)pyrimidin-5-yl]-3,3-dimethylbutanoate]	80 to 100	< 50	80 to 100	80 to 100	< 50	80 to 100	80 to 100	< 50	80 to 100	< 50
Cc1c(COC(=O)C(c2cnc(C(C)(C)C)nc2)C(C)(C)C)cccc1-c1ccccc1 (racemic) [Compound 3, 2-methyl-3-phenylbenzyl (RS)-2-[2-(1,1-dimethylethyl)pyrimidin-5-yl]-3,3-dimethylbutanoate]	80 to 100	< 50	50 to 79	< 50	80 to 100	< 50	80 to 100	< 50	80 to 100	< 50
CC(C)(C)c1ncc(C(C(=O)OCc2c(F)c(F)c(F)c(F)c2F)C(C)(C)C)cn1 (racemic) [Compound 30, 2,3,4,5,6-pentafluorobenzyl (RS)-2-[2-(1,1-dimethylethyl)pyrimidin-5-yl]-3,3-dimethylbutanoate]	80 to 100	< 50	80 to 100	80 to 100	< 50	80 to 100	80 to 100	80 to 100	80 to 100	80 to 100
CC(C)OC(=O)c1c(F)c(F)c(COC(=O)C(c2cnc(C(C)(C)C)nc2)C(C)(C)C)c(F)c1F (racemic) [Compound 171, 4-[(prop-2-yl)oxycarbonyl]-2,3,5,6-tetrafluorobenzyl (RS)-2-[2-(1,1-dimethylethyl)pyrimidin-5-yl]-3,3-dimethylbutanoate]	< 50	< 50	< 50	< 50	< 50	< 50	< 50	< 50	80 to 100	< 50
CC(=O)OCc1c(F)c(F)c(COC(=O)C(c2cnc(C(C)(C)C)nc2)C(C)(C)C)c(F)c1F (racemic) [Compound 166, 2,3,5,6-tetrafluoro-4-(acetyloxymethyl)benzyl (RS)-2-[2-(1,1-dimethylethyl)pyrimidin-5-yl]-3,3-dimethylbutanoate]	50 to 79	< 50	< 50	< 50	80 to 100	80 to 100	80 to 100	80 to 100	80 to 100	< 50
